Reference: US20090062255A1, “TUMOR-TARGETING EVALUATION METHODOLOGY AND COMPOUNDS RELATED THERETO” (THALLION PHARMACEUTICALS INC., priority 2007, published 2009)
“Also recorded” adds a separate entry of the source.

Assays:
GTP-bound Ras = test: Ras activation pull-down assay (GST-Raf-RBD) in MCF-7 cells; assay type: cell-based, human; conditions: 6 h treatment, EGF 5 min
Protocol: Following EGF induction, Ras is activated by a nucleotide exchange reaction that removes GDP and replaces it with GTP. Physiological levels of total cellular GTP-bound Ras can be detected with pull-down assays. MCF-7 cells were treated with increasing concentrations of ECO-4601 for 6 h and the Ras-MAPK signalling pathway was then induced with EGF. After a 5 min induction period, cells were lysed and incubated with a recombinant fusion protein that contains the isolated Ras Binding Domain of c-Raf-1 fused the gluthathione-S-transferese (GST; designated GST-Raf-RBD). The presence of Ras in the GST-Raf-RBD protein complex is resolved by western blotting. As expected, after EGF induction, an increase of Ras-GTP was observed.

PBR = target: T1, PBR (Rattus norvegicus, UniProt P16257); test: In vivo PBR occupancy by PET (11C-(R)-PK11195) following IP administration; conditions: 30 mg/kg IP, 30 min before scan, mean±S.D.
T1 construct: from tissue; host or cells: orthotopic rat C6 glioma in Sprague-Dawley rats, in vivo
Protocol: (R)-1-(2-chlorophenyl)-N-methyl-N-(1-methyl-propyl)-3-isoquinoline carboxamide (R N-desmethyl PK11195), the precursor for the radioisotope-labeled (R) —PK11195, was purchased from ABX (Radeburg, Germany). The synthesis of ^11C-(R)-PK11195 was accomplished by a modification of the method of Camsonne et al. (J. Label. Compd. Radiopharm., 21: 985-991,1984). Briefly, ^11C-methyl iodide (^11C—CH3I) was transferred by a stream of nitrogen gas at a flow rate of 10 ml/min into a reaction medium containing 1 mg or R—N-desmethyl PK11195 previously dissolved in 0.5 mL of dimethylsulfoxide (DMSO) and about 20 mg of sodium hydroxide. The reaction was initiated at room temperature, with a bubbling of the ^11C—CH3I being continued over a 5 minute period. After bubbling was complete, the reaction mixture was left standing for 5 minutes. Purification was performed by high pressure liquid chromatography (HPLC) using a reverse-phase C18 column and a methanol:ammonium formate (20 mM) (80:20) mixture and a mobile phase at a flow rate of 3 mL/min. ^11C—(R) —PK11195 was eluted at 11 minutes and obtained with a specific radioactivity of […].
In vivo PET studies were performed 14 days post tumor implantation. […] Attenuation correction factors, for each rat (total of 7 animals), were determined using a 10 min ^57Co transmission scan acquired immediately prior to the dynamic scan. […]

human MiaPaCa-2 tumors = test: Human MiaPaCa-2 tumors in mice, antitumor efficacy; assay type: in vivo; conditions: 30 mg/kg SC, Q1D×5 for 3 wk, established MiaPaCa-2 tumors
Protocol: Mice bearing established (100 mm^3) human MiaPaCa-2 tumors were dosed with 30 mg/kg (Q1D×5 for 3 wk; SC administration). The positive control group was treated with gemcitabine at 60 mg/kg once a day on Monday and Thursday (TWx4). ECO-4601 as a single agent was statistically different from the vehicle control group (P ˜0.008) following SC daily dosing resulting in a T/C of 56% (FIG. 12).

[1] = test system: prenylation of Ras, RAP1A and HDJ2 (FTase, GGTase I); test: Protein prenylation immunoblot (FTase and GGTase I activities) in MCF-7 cells; assay type: cell-based, human; conditions: MCF7 cells, 3, 10 and 30 μM, 24 h; listed as ECO-4601
Protocol: It was first verified if ECO-4601 interferes with Ras processing by monitoring FTase and GGTase I activities by immunoblot analysis. For these experiments, exponentially growing MCF-7 (human breast tumor) cells were seeded in 60 mm cell culture dishes at a density of 2.5×10^6 cells per dish. After an 18 h incubation period, ECO-4601 or lovastatin (Sigma-Aldrich, St. Louis, Mo.) were added at a final concentration of 3, 10 and 30 μM for 24 h. Cells were also treated with the vehicle alone (0.05% DMSO) for the same incubation periods. Treated and control cells were lysed in ice-cold RIPA buffer (50 mM Tris-HCl pH 7.4, 1% Triton X-100, 1% deoxycholate, 0.1% SDS, 150 mM NaCl, and 1 mM EDTA) containing protease inhibitors (Roche, Mannheim, Germany) and phosphatase inhibitors (EMD Biosciences, Calbiochem, San Diego, Calif.) for 20 minutes on ice. After lysis, cell debris was removed by centrifugation at 12000×g for 10 min. […] Bound antibodies were detected using horseradish peroxidase-conjugated secondary antibodies (Jackson ImmunoResearch Laboratories Inc., West Grove, Pa.) for 1 h at room temperature in 0.5% skim milk-TBS, visualized by treating the membranes with enhanced chemiluminescence reagents (Millipore, Mississauga, ON, Canada) and exposing them to BioMax Light Films (Kodak, Mississauga, ON, Canada). […]

CC(C)=CCC/C(C)=C/CC/C(C)=C/CN1C(=O)c2cccc(O)c2Nc2c(O)cc(O)cc21 [Compound 1, 10-farnesyl-4,6,8-trihydroxy-5,10-dihydrodibenzo[b,e][1,4]diazepin-11-one]
effect on EGF-induced Ras activation (Ras-GTP) (GTP-bound Ras): prevented EGF from activating Ras
mean tumor binding potential (B.P.) after compound (PBR): 1.05±0.34
T/C (human MiaPaCa-2 tumors): 56%
effect on protein prenylation (mobility shift of Ras, RAP1A and HDJ2) [1]: does not inhibit protein prenylation; also recorded: no effect
